Test results reported in patent US8226943B2, “Antibodies to notch receptors” (OncoMed Pharmaceuticals, Inc., priority 2008, dated 2012).

Columns and labels:
[1] = system: M4 melanoma tumor cells; test: M4 melanoma xenograft growth; assay type: in vivo, NOD-SCID mice; settings: 10 mg/kg twice per week
Procedure: M4 melanoma tumor cells (10,000 cells per mouse) were injected subcutaneously into the flank region of NOD-SCID mice. Tumors were allowed to grow for 25 days until they had reached an average volume of ˜80 mm^3. Animals were randomized into treatment groups (n=10/group) and treatments were initiated. One group received a control antibody (1B711) at 10 mg/kg twice per week and one group received 59R1 at 10 mg/kg twice per week. Tumor volumes were measured on the indicated days.

[2] = system: T3 breast tumor cells; test: T3 breast tumor xenograft growth; assay type: in vivo, NOD/SCID mice
Procedure: In certain embodiments, NOD/SCID mice injected with 50,000 PE13 or T3 breast tumor cells were treated with anti-Notch2/3 antibody 59R1 or control antibody 1B7.11 two days following cell injections. Antibodies were dosed at 10 mg/kg twice week.
In a further experiment, anti-Notch2/3 antibodies were tested for an effect on breast tumor growth. NOD/SCID mice were injected with 50,000 PE13 or T3 breast tumor cells, and tumors were allowed to grow to a size of between 65 to 200 mm^3 after which mice were randomized (n=10 per experimental group), and antibodies administration begun. Animals were treated with 15 mg/kg of either control 1B7.11 antibodies or anti-Notch2/3 59R1 antibodies twice weekly. Tumor size was measured twice weekly, and tumor volume was calculated as described (see Michieli et al., 2004).

[3] = biological target: T1, human Notch2 EGF deletion and point mutants (Homo sapiens, UniProt Q04721, A388S/H385N/L389N); test: FACS epitope mapping with full-length hNotch2 deletion and point mutants; assay type: binding; settings: FACS on point mutants
T1 construct: several point mutants were created within full-length Notch2; expressed in transfected cells; host or cells: HEK-293, transient, co-transfected with GFP
Procedure: (§1) Point mutations were made within EGF10 of Notch2 fusion proteins and binding of 59R1 to each EGF10 mutant was determined by FACS analysis. HEK-293 cells were transiently transfected with the indicated Notch expression plasmid and GFP as a transfection control. GFP positive cells indicated expression of the transgene. The 59R1 Fab antibody was added to the cells at 10 μg/ml and detected by PE-conjugated goat anti-human (Jackson Immunochemicals).
(§2) FACS analysis of HEK-293 cells transiently transfected with the indicated Notch expression plasmid and GFP as a transfection control. GFP positive cells indicate expression of the transgene. Anti-Notch2 (59M70) was added at 20 μg/ml and detected by PE-conjugated goat anti-mouse (Caltag, #3004-4). 59R1 (IgG2) was added to the cells at 2 μg/ml and detected by PE-conjugated goat anti-human Fc gamma specific (Jackson Immunochemicals). Ligand binding was determined by incubation of the cells with human DLL4 extracellular domain (ECD) fused to rabbit IgG constant region at 5 μg/ml and detected by PE-conjugated donkey anti-rabbit.
(§3) A comparison analysis of the EGF 10 regions of human Notch1, Notch2, and Notch4 and the EGF 9 region of human Notch3 (the equivalent of EGF 10 in the other Notch receptors) was performed to determine likely binding sites for 59R1 (FIG. 14A). […] Binding to the mutants was determined by FACS analysis (FIGS. 14B and 14C). […]

[4] = biological target: T2, human Notch2 EGF deletion and point mutants (Homo sapiens, UniProt Q04721, DEL375-412); test: as above; assay type: binding; settings: HEK-293 transiently transfected
T2 construct: several point mutants were created within full-length Notch2; expressed in transfected cells; host or cells: HEK-293, transient, co-transfected with GFP
Procedure: as §1, §2, §3

[5] = system: stroma of B44 tumors; test: Microarray gene expression in stroma of treated xenograft tumors, B44; assay type: in vivo, mice; settings: 59R1 vs control
Procedure: Gene expression levels in various xenograft tumor models treated with the 59R1 IgG2 antibody were analyzed by microarray analysis. […] […] Scanned array background adjustment and signal intensity normalization were performed with GCRMA algorithm in the open-source bioconductor software (www.bioconductor.org). The expression level of each gene was normalized by z-score transformation across the samples in the control (CTRL) and treatment (59R1) groups.

[6] = biological target: T3, human Notch4 (Homo sapiens, UniProt Q99466); test: FACS binding to transiently transfected HEK-293 cells, human Notch4
T3 construct: All Notch constructs were full length; expressed in transfected cells; host or cells: HEK-293, transient, co-transfected with GFP
Procedure: The ability of the 59R1 IgG2 antibody to cross-react with other Notch receptors was determined by FACS assay using HEK-293 cells transiently transfected with the human Notch1, Notch2, Notch3 or Notch4 expression plasmid and green fluorescent protein (GFP) as a transfection control. GFP positive cells indicated expression of the transgene. The 59R1 IgG2 was added to the cells at 2 μg/ml and detected by PE-conjugated goat anti-human Fc gamma specific (Jackson Immunochemicals). All Notch constructs were full length.

[7] = system: murine Notch3; test: DLL4-Fc induced receptor activation in transfected PC3 cells, murine Notch3; assay type: cell-based, mouse; settings: immobilized DLL4-Fc
Procedure: (§4) 59R5 was determined to have similar activity in blocking Notch2 and Notch3 signaling as 59R1. Receptor activation was determined in luciferase-based assays. PC3 tumor cells were transiently transfected with a human or mouse Notch receptor (human Notch2, murine Notch2, human Notch3, or murine Notch3) and […] inducible reporter construct. Transfected cells were incubated with different concentrations of 59R1 or 59R5 antibody in the presence of passively immobilized DLL4-Fc protein. Notch receptor activation was determined by measuring luciferase activity.

[8] = biological target: human Notch2 (Homo sapiens, UniProt Q04721); test: DLL4-Fc induced receptor activation in transfected PC3 cells, human Notch2; assay type: cell-based; parameters: expressed in transfected cells; settings: immobilized DLL4-Fc
Procedure: as §4

T3 sequence (Q99466 24-2003): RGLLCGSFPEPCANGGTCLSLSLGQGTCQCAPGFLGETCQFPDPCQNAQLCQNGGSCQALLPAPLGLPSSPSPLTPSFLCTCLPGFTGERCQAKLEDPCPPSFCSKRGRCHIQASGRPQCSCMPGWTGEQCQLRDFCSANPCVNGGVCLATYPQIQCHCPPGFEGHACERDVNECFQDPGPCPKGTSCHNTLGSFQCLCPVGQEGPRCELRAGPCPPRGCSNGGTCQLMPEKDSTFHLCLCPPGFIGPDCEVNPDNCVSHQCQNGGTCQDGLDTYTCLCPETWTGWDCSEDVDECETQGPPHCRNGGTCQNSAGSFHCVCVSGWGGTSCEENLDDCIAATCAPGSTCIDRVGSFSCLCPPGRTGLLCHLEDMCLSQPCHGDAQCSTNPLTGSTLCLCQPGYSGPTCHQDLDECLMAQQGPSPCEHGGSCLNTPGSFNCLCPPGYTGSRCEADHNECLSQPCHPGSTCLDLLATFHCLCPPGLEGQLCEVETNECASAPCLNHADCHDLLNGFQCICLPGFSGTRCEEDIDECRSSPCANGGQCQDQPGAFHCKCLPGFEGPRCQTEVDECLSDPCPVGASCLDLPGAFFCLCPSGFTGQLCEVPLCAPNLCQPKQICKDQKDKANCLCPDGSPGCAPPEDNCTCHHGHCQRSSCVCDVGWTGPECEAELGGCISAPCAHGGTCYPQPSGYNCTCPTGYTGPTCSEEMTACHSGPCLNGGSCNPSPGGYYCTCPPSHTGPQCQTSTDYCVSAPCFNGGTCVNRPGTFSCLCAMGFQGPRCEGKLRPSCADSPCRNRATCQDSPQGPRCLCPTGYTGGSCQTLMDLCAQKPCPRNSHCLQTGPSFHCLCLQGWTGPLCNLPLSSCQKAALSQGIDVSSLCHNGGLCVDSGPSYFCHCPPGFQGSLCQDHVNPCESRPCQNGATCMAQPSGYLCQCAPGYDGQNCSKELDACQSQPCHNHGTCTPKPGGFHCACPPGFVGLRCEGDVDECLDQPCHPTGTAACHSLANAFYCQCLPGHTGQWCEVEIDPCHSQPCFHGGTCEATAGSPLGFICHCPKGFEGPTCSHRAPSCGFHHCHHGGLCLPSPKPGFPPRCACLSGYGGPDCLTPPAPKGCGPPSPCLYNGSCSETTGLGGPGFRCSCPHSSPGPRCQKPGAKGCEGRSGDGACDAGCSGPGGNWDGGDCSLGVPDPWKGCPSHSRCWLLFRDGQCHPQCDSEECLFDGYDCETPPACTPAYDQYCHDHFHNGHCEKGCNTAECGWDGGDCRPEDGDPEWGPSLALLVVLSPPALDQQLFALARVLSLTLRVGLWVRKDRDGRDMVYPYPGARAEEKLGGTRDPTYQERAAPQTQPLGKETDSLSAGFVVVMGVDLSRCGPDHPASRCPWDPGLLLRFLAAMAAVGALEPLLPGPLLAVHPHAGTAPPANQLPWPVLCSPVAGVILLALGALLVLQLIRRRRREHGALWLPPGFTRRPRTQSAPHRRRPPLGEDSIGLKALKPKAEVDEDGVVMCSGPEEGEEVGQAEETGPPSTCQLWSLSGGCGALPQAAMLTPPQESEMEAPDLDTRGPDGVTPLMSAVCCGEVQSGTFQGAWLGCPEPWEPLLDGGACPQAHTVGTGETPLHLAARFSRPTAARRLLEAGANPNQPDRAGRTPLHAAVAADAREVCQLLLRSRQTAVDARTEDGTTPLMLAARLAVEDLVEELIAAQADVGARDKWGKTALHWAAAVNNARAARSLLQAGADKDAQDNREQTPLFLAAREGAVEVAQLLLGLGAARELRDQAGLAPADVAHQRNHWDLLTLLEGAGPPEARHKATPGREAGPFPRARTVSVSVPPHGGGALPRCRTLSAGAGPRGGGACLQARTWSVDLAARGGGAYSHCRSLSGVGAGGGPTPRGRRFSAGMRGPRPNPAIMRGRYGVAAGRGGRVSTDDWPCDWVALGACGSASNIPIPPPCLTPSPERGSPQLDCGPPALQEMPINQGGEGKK
T1 sequence (Q04721 26-2471 H385N/A388S/L389N): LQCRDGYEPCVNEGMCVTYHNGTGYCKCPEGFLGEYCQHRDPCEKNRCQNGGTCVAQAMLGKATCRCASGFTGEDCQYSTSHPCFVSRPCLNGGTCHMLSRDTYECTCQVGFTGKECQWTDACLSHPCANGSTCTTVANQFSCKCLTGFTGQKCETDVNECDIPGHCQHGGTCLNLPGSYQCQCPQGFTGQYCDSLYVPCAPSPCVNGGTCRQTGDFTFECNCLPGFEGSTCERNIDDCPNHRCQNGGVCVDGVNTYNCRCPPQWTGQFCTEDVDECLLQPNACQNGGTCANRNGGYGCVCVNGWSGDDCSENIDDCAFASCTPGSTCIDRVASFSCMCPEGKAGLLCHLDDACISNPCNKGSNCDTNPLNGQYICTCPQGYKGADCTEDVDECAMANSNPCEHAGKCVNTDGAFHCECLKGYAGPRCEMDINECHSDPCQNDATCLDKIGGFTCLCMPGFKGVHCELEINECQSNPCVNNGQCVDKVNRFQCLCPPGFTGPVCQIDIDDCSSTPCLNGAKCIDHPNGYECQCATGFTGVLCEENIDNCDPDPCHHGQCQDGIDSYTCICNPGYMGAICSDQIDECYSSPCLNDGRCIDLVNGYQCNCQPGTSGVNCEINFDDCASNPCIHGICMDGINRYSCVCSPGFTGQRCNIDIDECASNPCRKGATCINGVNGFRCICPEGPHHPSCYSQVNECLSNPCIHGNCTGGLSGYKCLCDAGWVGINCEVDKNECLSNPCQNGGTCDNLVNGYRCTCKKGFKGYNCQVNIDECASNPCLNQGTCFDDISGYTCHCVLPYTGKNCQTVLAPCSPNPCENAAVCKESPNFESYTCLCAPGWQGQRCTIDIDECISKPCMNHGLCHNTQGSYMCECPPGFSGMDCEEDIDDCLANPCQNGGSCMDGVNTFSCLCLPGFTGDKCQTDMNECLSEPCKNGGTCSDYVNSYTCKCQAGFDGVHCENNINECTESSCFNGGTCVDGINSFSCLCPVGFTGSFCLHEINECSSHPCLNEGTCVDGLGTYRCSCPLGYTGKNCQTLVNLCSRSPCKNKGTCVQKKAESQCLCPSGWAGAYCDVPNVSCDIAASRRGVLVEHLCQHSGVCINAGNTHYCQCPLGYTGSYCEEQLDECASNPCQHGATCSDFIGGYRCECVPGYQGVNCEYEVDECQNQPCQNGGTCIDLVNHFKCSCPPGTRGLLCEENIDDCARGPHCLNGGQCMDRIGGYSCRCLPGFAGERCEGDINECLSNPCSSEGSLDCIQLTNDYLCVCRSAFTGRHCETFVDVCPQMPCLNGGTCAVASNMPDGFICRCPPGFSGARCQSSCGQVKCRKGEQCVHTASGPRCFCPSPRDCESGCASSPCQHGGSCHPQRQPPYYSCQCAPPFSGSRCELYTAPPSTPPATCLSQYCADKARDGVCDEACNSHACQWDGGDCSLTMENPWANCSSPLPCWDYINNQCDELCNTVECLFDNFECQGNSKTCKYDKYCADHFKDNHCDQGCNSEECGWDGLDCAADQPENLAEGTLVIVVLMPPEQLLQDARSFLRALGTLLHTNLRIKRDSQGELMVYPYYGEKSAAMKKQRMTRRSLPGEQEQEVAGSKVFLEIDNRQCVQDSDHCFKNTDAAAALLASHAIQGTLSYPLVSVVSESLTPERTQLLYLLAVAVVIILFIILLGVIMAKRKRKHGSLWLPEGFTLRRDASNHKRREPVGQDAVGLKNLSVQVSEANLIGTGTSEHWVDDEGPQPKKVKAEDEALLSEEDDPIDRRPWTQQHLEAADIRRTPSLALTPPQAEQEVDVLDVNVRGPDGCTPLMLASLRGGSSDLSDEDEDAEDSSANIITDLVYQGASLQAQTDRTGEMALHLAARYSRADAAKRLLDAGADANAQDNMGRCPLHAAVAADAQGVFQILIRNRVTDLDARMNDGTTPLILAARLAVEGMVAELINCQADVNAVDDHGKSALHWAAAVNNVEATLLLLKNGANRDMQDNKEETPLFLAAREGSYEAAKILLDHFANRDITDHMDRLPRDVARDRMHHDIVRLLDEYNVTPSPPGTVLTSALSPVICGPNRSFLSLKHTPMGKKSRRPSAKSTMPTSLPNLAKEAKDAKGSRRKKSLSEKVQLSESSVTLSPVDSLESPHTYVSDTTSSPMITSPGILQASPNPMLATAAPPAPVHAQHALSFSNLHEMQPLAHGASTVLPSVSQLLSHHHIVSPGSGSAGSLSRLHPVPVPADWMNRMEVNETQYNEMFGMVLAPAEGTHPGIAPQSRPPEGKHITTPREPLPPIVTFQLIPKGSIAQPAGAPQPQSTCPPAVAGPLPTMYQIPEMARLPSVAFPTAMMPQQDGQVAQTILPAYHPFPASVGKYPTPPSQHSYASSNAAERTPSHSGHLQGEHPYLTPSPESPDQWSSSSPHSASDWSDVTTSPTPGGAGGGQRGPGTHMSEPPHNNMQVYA
Sequence of human Notch2 (Q04721 26-2471): as the sequence (Q04721 26-2471 H385N/A388S/L389N) above, with N360H, S363A, N364L counted along it

59R1: human IgG2 antibody binding Notch2 and Notch3; heavy and light chain SEQ ID NO:16 and 18; ATCC PTA-9547
M4 melanoma tumor growth [1]: inhibited | T3 tumor growth compared to control ([2]; 10 mg/kg twice week, started two days following cell injections): significantly reduced | T3 tumor growth compared to control ([2]; established tumors, 15 mg/kg twice weekly): significantly reduced | amino acids necessary for binding to hNotch 2 [3]: histidine 385, alanine 388, and leucine 389 | FACS binding to hNotch2 in the absence of EGF 10 (missing amino acids 375-412) [4]: does not | Fold 1416286_at (Rgs4) [5]: −1.57 | Fold 1417466_at (Rgs5) [5]: −2.22 | Fold 1417714_x_at (Hba-al/Hba-a2) [5]: −2.56 | Fold 1418829_a_at (Eno2) [5]: 1.71 | Fold 1419302_at (Heyl) [5]: −1.12 | Fold 1420872_at (Gucy1b3) [5]: −1.65 | Fold 1420941_at (Rgs5) [5]: −2.09 | Fold 1420942_s_at (Rgs5) [5]: −2.43 | Fold 1421964_at (Notch3) [5]: −2.03 | Fold 1422789_at (Aldh1a2) [5]: −4.92 | Fold 1428361_x_at (Hba-al/Hba-a2) [5]: −2.42 | Fold 1434141_at (Gucy1a3) [5]: −1.74 | Fold 1449280_at (Esm1) [5]: 1.55 | Fold 1449632_s_at (Fkbp10) [5]: −1.57 | Fold 1451501_a_at (Ghr) [5]: −2.24 | Fold 1452590_a_at (Plac9) [5]: −1.64 | Fold 1459713_s_at (Tmem16a) [5]: −1.70 | binding to full-length human Notch4 (FACS) [6]: does not bind significantly

59R5: human antibody that specifically binds human Notch 2 and human Notch 3; heavy and light chain SEQ ID NO:49 and 18; ATCC PTA-10170
ligand-induced activation of murine Notch3 receptor signaling [7]: blocked | ligand-induced activation of human Notch2 receptor signaling [8]: blocked
